Experimental findings from US20250195490A1, “ALPHA-METHYLENE AND AMINOMETHYL LACTONES AND LACTAMS FOR TREATMENT OF CLOSTRIDIOIDES DIFFICILE INFECTION (CDI)” (Purdue Research Foundation, priority 2022, published 2025) are described below.

SMILES strings stand for the structures.

Assay [1] has as its system C. difficile ATCC 43255. Description: CDI mouse recurrence model. It is filed as in vivo, C57BL/6 mice. Particulars: for signs of disease during therapy / survival by day 11: 10 mg/kg daily for 5 days. The text has this: For mouse recurrence, two models were used for testing the efficacy of aminomethyllactone 27 for preventing recurrence after treatment with vancomycin. The two models used were A—Chen et al model and B— a more aggressive protocol that was developed using modified Chen et al. protocol antibiotic cocktail (applying 3× times the doses of the antibiotics). In brief, groups of 12-weeks-old female C57BL/6 mice were sensitized to CDI by giving either the antibiotic cocktail described above or 3× the dose of antibiotics cocktail in the drinking water for 5 days. Then mice were treated with clindamycin (10 mg/kg) two days after withdrawal of the antibiotic cocktail. One day after clindamycin treatment, mice were infected orally with 1.9×10^6 CFU spore suspension of C. difficile ATCC 43255 [32]. Two hours after infection, animals were divided into groups (n=10), and groups received either Compound 27 (10 mg/kg) or vancomycin (10 mg/kg) by gavage daily for 5 days. Treatment was stopped at day 5, and mice were monitored for an additional 23 days. […] However, from day 9 onward (4 days after vancomycin was discontinued), vancomycin-treated mice developed CDI. By day 11, only 60% of the mice treated with vancomycin had survived in the original protocol (lx antibiotic), and there was 0% survival in the aggressive antibiotic protocol (3× antibiotic). […] Symptomatic recurrence of CDI occurs in approximately 20% of patients and is challenging to treat. In addition to subsequent prolongation of C. difficile shedding and transmission, 1 out of every 5 patients with CDI, who experienced a recurrence of the infection, died within 30 days of diagnosis. Compound 27, which reduces recurrences, can potentially prolong the clinical utility of current antibiotics (vancomycin and fidaxomicin).

For another assay, the system named is E. faecalis (VRE). Description: microbe, parasite or virus in culture. It is filed as cell-based, Enterococcus faecalis. Particulars: aerobic, 37° C., at least 18 hours. How it is done: (§1) Method: The minimum inhibitory concentration (MIC) of the compounds and control drugs, linezolid (antibiotic), vancomycin (antibiotic), 5-fluorocytosine (5-FC, antifungal drug), and fluconazole (antifungal drug) was determined using the broth microdilution method according to the guidelines outlined by the Clinical and Laboratory Standards Institute (CLSI) against clinically relevant bacterial (methicillin-resistant Staphylococcus aureus (MRSA), vancomycin-resistant Enterococcus faecalis (VRE), vancomycin-resistant Enterococcus faecium (VRE), Clostridioides difficile and Escherichia coli) and fungal (Candida albicans) strains. A solution equivalent to 0.5 McFarland standard was prepared from each strain and diluted in cation-adjusted Mueller-Hinton broth (for S. aureus and E. coli), tryptone soy broth (for E. faecalis), or brain heart infusion broth (for E. faecium) to achieve a bacterial inoculum of about 5×10^5 CFU/mL. C. difficile strains were cultured in brain heart infusion broth supplemented with hemin and vitamin K. C. albicans was diluted in RPMI medium supplemented with 3-(N-morpholino) propanesulfonic acid to achieve a fungal concentration of about 1.5×10^3 CFU/mL. Compounds and control drugs were added in the first row of the 96-well plates and diluted with media containing bacteria (to achieve a concentration gradient ranging from 128 to 1 μg/mL). For MRSA, VRE, and E. coli strains, plates were then incubated aerobically at 37° C. for at least 18 hours. C. albicans was incubated aerobically at 37° C. for 24 hours. Plates containing C. difficile were incubated anaerobically at […] for 48 hours.

Another assay relates to E. coli (TolC mutant). Description: MIC by broth microdilution against E. coli (TolC mutant). The class given is cell-based, Escherichia coli. Particulars: aerobic, 37° C., at least 18 hours. How it is done: as §1
A further assay relates to E. faecium. The assay is described as follows: Broth microdilution against vancomycin-resistant E. faecium. The class given is cell-based, Enterococcus faecium. Particulars: gradient 128 to 1 μg/mL. How it is done:
as §1
On the technique in general: In broth dilution the organism is exposed to a series of concentrations in liquid medium.

The test system of assay [2] is C. difficile ATCC 43255. The assay is described as follows: Antibiotic-induced C. difficile-associated diarrhea mouse model. It is filed as in vivo, C57BL/6 mice. Particulars: 10 mg/kg by gavage daily for 5 days; two mouse models (protocols A and B). How it is done:
Preliminary in vivo experiments were carried out in two mouse models of antibiotic-induced C. difficile-associated diarrhea and two recurrence models to ensure the feasibility of using this new class of antibiotic orally against C. difficile infection.
Groups of 12-weeks-old female C57BL/6 mice were sensitized to CDI with two different protocols. A—Mice were given antibiotic cocktail containing gentamicin (0.035 mg/mL), kanamycin (0.4 mg/ml), metronidazole (0.215 mg/mL), colistin (850 U/mL), and vancomycin (0.045 mg/mL) in drinking water for 5 days. Then mice were treated with clindamycin (10 mg/kg) two days after withdrawal of the antibiotic cocktail. One day after clindamycin treatment, mice were infected orally with 1.9×10^6 CFU spore suspension of C. difficile ATCC 43255 [32]. Two hours after infection, animals were divided into groups (n=10), and groups received either vehicle (sterile water), Compound 27 (10 mg/kg), or vancomycin (10 mg/kg) by gavage daily for 5 days. B— In the second protocol mice were sensitized to CDI with cefoperazone (1.5 mg/mL) in the drinking water for 10 days. Afterwards, mice were switched to regular water for 2 days, followed by injecting clindamycin (10 mg/kg) intraperitoneally. One day after clindamycin treatment, mice were infected and treated as group A above.

As to `COc1cc(C2OC(=O)C(CN3CCCCC3)C2c2ccccc2Br)ccc1OCc1ccccc1` (racemic) [Compound 27], the “signs of disease during therapy” value in the assay with C. difficile ATCC 43255 [1] is “no signs of disease”. This compound also yielded a survival of mice with C. difficile ATCC 43255 [1] (28 days, 10 mg/kg oral daily for 5 days) of 100%. Further, in the assay with C. difficile ATCC 43255 [1] (for 28 days, 10 mg/kg oral daily for 5 days), the “recurrence of CDI” value is listed as “no recurrence”. For the same compound, the “MIC E. faecalis (VRE)” value against E. faecalis (VRE) is above 128 µg/mL. Further, the “MIC E. coli (TolC mutant)” value against E. coli (TolC mutant) is above 128 µg/mL. In addition, the “inhibition of the tested strains of E. faecium” value in the assay on E. faecium is “did not inhibit”. Moreover, the protection in the assay with C. difficile ATCC 43255 [2] amounted to 100%.

For the compound `CN[C@H](CC(C)C)C(=O)N[C@H]1C(=O)N[C@@H](CC(N)=O)C(=O)N[C@H]2C(=O)N[C@H]3C(=O)N[C@H](C(=O)N[C@H](C(=O)O)c4cc(O)cc(O)c4-c4cc3ccc4O)[C@H](O)c3ccc(c(Cl)c3)Oc3cc2cc(c3O[C@@H]2O[C@H](CO)[C@@H](O)[C@H](O)[C@H]2O[C@H]2C[C@](C)(N)[C@H](O)[C@H](C)O2)Oc2ccc(cc2Cl)[C@H]1O` [Vancomycin, reference compound], the “signs of disease during therapy” value in the assay with C. difficile ATCC 43255 [1] is reported as “no signs of disease”. Further, the “survival by day 11” value in the assay on C. difficile ATCC 43255 [1] (aggressive antibiotic protocol (3× antibiotic)) is given as 0%; with C. difficile ATCC 43255 [1] (original protocol (1x antibiotic)) it was 60%. In addition, in the assay on C. difficile ATCC 43255 [1] (treatment stopped at day 5), the “day from which treated mice developed CDI” value was at least 9 days. Also, the protection with C. difficile ATCC 43255 [2] came to 100%.

Consider `C=C1C(=O)O[C@H](c2ccccc2O)[C@@H]1c1cccc(C#N)c1` (racemic) [Compound 50], for which the “MIC E. faecalis (VRE)” value against E. faecalis (VRE) was above 128 µg/mL. Also, the “MIC E. coli (TolC mutant)” value against E. coli (TolC mutant) is above 128 µg/mL. Also, the “inhibition of the tested strains of E. faecium” value in the assay on E. faecium is “did not inhibit”.
